Several values for one entry are separate records, joined by “and”; a condition that tells them apart may be missing. Equal values may be shown once. Toxic doses and inconclusive results are not listed.
System: P388 leukemia ip, CD2F1 mice, survival T/C
Experiment: NCI In Vivo Anticancer Drug Screen. Data for tumor model P388 Leukemia (intraperitoneal) in CD2F1 (CDF1) mice
Conditions: endpoint: median survival time, higher = longer survival
Procedure, shortened: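 Mice carrying the transplanted tumor received test compound or vehicle. Survival was recorded in each group, and the value is the treated-group measurement divided by that of the vehicle-treated control group.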

[1] = dose: 50.0 mg/kg/injection, schedule: Q01DX009 (ip), vehicle: saline
[2] = dose: 50.0 mg/kg/injection, schedule: Q01DX005 (ip), vehicle: saline with Tween-80
[3] = dose: 100.0 mg/kg/injection, schedule: Q01DX005 (ip), vehicle: saline with Tween-80
[4] = dose: 50.0 mg/kg/injection, schedule: Q01DX005 (ip), vehicle: Klucel (hydroxypropylcellulose) (HPC)
[5] = dose: 100.0 mg/kg/injection, schedule: Q01DX005 (ip), vehicle: Klucel (hydroxypropylcellulose) (HPC)
[6] = dose: 200.0 mg/kg/injection, schedule: Q01DX005 (ip), vehicle: Klucel (hydroxypropylcellulose) (HPC)
[7] = dose: 60.0 mg/kg/injection, schedule: Q01DX005 (ip), vehicle: saline with Tween-80
[8] = dose: 120.0 mg/kg/injection, schedule: Q01DX005 (ip), vehicle: saline with Tween-80
[9] = dose: 240.0 mg/kg/injection, schedule: Q01DX005 (ip), vehicle: saline with Tween-80
[10] = dose: 50.0 mg/kg/injection, schedule: Q01DX009 (ip), vehicle: saline with Tween-80
[11] = dose: 25.0 mg/kg/injection, schedule: Q04DX002 (ip), vehicle: saline with Tween-80
[12] = dose: 60.0 mg/kg/injection, schedule: Q01DX005 (ip), vehicle: Klucel (hydroxypropylcellulose) (HPC)
[13] = dose: 120.0 mg/kg/injection, schedule: Q01DX005 (ip), vehicle: Klucel (hydroxypropylcellulose) (HPC)
[14] = dose: 100.0 mg/kg/injection, schedule: Q01DX009 (ip), vehicle: saline with Tween-80

CC1CCC(NC(=O)N(CCCl)N=O)CC1 (configuration not stated)
T/C (dose: 1.0 mg/kg/injection, schedule: Q01DX009 (ip), vehicle: saline sonified): 112 % of control
T/C (dose: 2.0 mg/kg/injection, schedule: Q01DX009 (ip), vehicle: saline with Tween-80): 122 % of control
T/C (dose: 3.0 mg/kg/injection, schedule: Q04DX003 (ip), vehicle: other): 163 % of control
T/C (dose: 3.75 mg/kg/injection, schedule: Q04DX003 (ip), vehicle: other): 163 % of control
T/C (dose: 4.0 mg/kg/injection, schedule: Q01DX009 (ip), vehicle: saline sonified): 166 % of control
T/C (dose: 4.0 mg/kg/injection, schedule: Q01DX009 (ip), vehicle: saline with Tween-80): 154 % of control
T/C (dose: 5.0 mg/kg/injection, schedule: Q04DX003 (ip), vehicle: other): 238 % of control
T/C (dose: 6.0 mg/kg/injection, schedule: Q04DX003 (ip), vehicle: other): 247 % of control
T/C (dose: 7.5 mg/kg/injection, schedule: Q04DX003 (ip), vehicle: other): 225 % of control
T/C (dose: 8.0 mg/kg/injection, schedule: Q01DX009 (ip), vehicle: saline sonified): 100 % of control
T/C (dose: 8.0 mg/kg/injection, schedule: Q01DX009 (ip), vehicle: saline with Tween-80): 190 % of control
T/C (dose: 10.0 mg/kg/injection, schedule: Q04DX003 (ip), vehicle: other): 160 % of control
T/C (dose: 10.0 mg/kg/injection, schedule: Q04DX003 (ip), vehicle: saline with Tween-80): 108 % of control and 120 % of control
T/C (dose: 12.0 mg/kg/injection, schedule: Q04DX003 (ip), vehicle: other): 238 % of control
T/C (dose: 15.0 mg/kg/injection, schedule: Q04DX003 (ip), vehicle: other): 441 % of control
T/C (dose: 15.0 mg/kg/injection, schedule: Q04DX003 (ip), vehicle: saline with Tween-80): 218 % of control
T/C (dose: 16.0 mg/kg/injection, schedule: Q01DX009 (ip), vehicle: saline with Tween-80): 109 % of control
T/C (dose: 20.0 mg/kg/injection, schedule: Q04DX003 (ip), vehicle: other): 231 % of control
T/C (dose: 20.0 mg/kg/injection, schedule: Q04DX003 (ip), vehicle: saline with Tween-80): 227 % of control and 250 % of control
T/C (dose: 24.0 mg/kg/injection, schedule: Q04DX003 (ip), vehicle: other): 110 % of control
T/C (dose: 30.0 mg/kg/injection, schedule: Q04DX003 (ip), vehicle: other): 156 % of control

COC(=O)C1C(NC(C)(C)C)CCN1C(C)=O (configuration not stated)
T/C (dose: 50.0 mg/kg/injection, schedule: Q01DX005 (ip), vehicle: saline): 89 % of control
T/C (dose: 100.0 mg/kg/injection, schedule: Q01DX005 (ip), vehicle: saline): 88 % of control
T/C (dose: 200.0 mg/kg/injection, schedule: Q01DX005 (ip), vehicle: saline): 89 % of control

ClCC1OCCO1
T/C [1]: 116 % of control
T/C (dose: 100.0 mg/kg/injection, schedule: Q01DX009 (ip), vehicle: saline): 116 % of control

CC(C(=O)c1ccc(O)cc1)C1(O)C(=O)Nc2ccccc21 (configuration not stated)
T/C [2]: 98 % of control
T/C [3]: 100 % of control
T/C (dose: 200.0 mg/kg/injection, schedule: Q01DX005 (ip), vehicle: saline with Tween-80): 101 % of control

Nc1c(C(=O)O)c(Br)cc2c1C(=O)c1ccccc1C2=O
T/C [4]: 99 % of control
T/C [5]: 99 % of control
T/C [6]: 107 % of control

Cc1cc[n+](Cc2cc3ccccc3nc2Cl)cc1C
T/C (dose: 3.75 mg/kg/injection, schedule: Q01DX005 (ip), vehicle: saline): 110 % of control
T/C (dose: 7.5 mg/kg/injection, schedule: Q01DX005 (ip), vehicle: saline): 93 % of control
T/C (dose: 15.0 mg/kg/injection, schedule: Q01DX005 (ip), vehicle: saline): 104 % of control
T/C (dose: 30.0 mg/kg/injection, schedule: Q01DX005 (ip), vehicle: saline): 107 % of control

Cc1ccc(C)c(NC(=O)CCC(=O)CC(=O)c2ccncc2)c1
T/C [7]: 107 % of control
T/C [8]: 107 % of control
T/C [9]: 105 % of control

[CH3][Bi]1[O]C(=O)c2ccccc2[S]1
T/C (dose: 25.0 mg/kg/injection, schedule: Q01DX005 (ip), vehicle: Klucel (hydroxypropylcellulose) (HPC)): 99 % of control and 102 % of control and 97 % of control

Cc1ccccc1C(=O)Nc1ccccc1-c1ccccc1
T/C (dose: 12.5 mg/kg/injection, schedule: Q01DX009 (ip), vehicle: saline with Tween-80): 94 % of control
T/C (dose: 25.0 mg/kg/injection, schedule: Q01DX009 (ip), vehicle: saline with Tween-80): 100 % of control
T/C [10]: 106 % of control
T/C [1]: 95 % of control
T/C (dose: 200.0 mg/kg/injection, schedule: Q01DX009 (ip), vehicle: saline): 93 % of control

C/C=C(\C)C(=O)OCC1(C)C(OC(=O)/C(C)=C/C)CCC2(C)C3C(=O)C=C(C)C2C31 (configuration not stated)
T/C [11]: 110 % of control
T/C (dose: 50.0 mg/kg/injection, schedule: Q04DX002 (ip), vehicle: saline with Tween-80): 94 % of control
T/C (dose: 100.0 mg/kg/injection, schedule: Q04DX002 (ip), vehicle: saline with Tween-80): 97 % of control

CC1=NOC2C1Sc1ccccc1N2C (configuration not stated)
T/C [4]: 103 % of control
T/C [5]: 102 % of control
T/C [6]: 100 % of control

CC(C)C(=O)N1CCCCCCN1C(=O)C(C)C
T/C (dose: 100.0 mg/kg/injection, schedule: Q01DX009 (ip), vehicle: Klucel (hydroxypropylcellulose) (HPC)): 107 % of control
T/C (dose: 200.0 mg/kg/injection, schedule: Q01DX009 (ip), vehicle: Klucel (hydroxypropylcellulose) (HPC)): 111 % of control

C/C=C/CC(C)C(O)C1C(=O)NC(CC)C(=O)N(C)CC(=O)N(C)C(CC(C)C)C(=O)NC(C(C)C)C(=O)N(C)C(CC(C)C)C(=O)NC(C)C(=O)NC(C)C(=O)N(C)C(CC(C)C)C(=O)N(C)C(CC(C)C)C(=O)N(C)C(C(C)C)C(=O)N1C (configuration not stated)
T/C (dose: 15.0 mg/kg/injection, schedule: Q01DX009 (ip), vehicle: Klucel (hydroxypropylcellulose) (HPC)): 106 % of control
T/C (dose: 30.0 mg/kg/injection, schedule: Q01DX009 (ip), vehicle: Klucel (hydroxypropylcellulose) (HPC)): 109 % of control
T/C (dose: 60.0 mg/kg/injection, schedule: Q01DX009 (ip), vehicle: Klucel (hydroxypropylcellulose) (HPC)): 116 % of control
T/C (dose: 120.0 mg/kg/injection, schedule: Q01DX009 (ip), vehicle: Klucel (hydroxypropylcellulose) (HPC)): 109 % of control

O=C1C(N=Nc2ccccc2)Sc2nc3ccccc3n21 (configuration not stated)
T/C [12]: 90 % of control
T/C [13]: 86 % of control

CCC1CN2CCC1CC2C(O)c1ccnc2ccc(OC)cc12 (configuration not stated)
T/C [2]: 100 % of control
T/C [3]: 98 % of control

CS(=O)(=O)OCC(Cc1ccccc1)N1C(=O)c2ccccc2C1=O (configuration not stated)
T/C (dose: 100.0 mg/kg/injection, schedule: Q01DX001 (ip), vehicle: saline with Tween-80): 101 % of control
T/C (dose: 200.0 mg/kg/injection, schedule: Q01DX001 (ip), vehicle: saline with Tween-80): 100 % of control
T/C (dose: 400.0 mg/kg/injection, schedule: Q01DX001 (ip), vehicle: saline with Tween-80): 89 % of control

OC1(c2ccc(F)cc2)CCNCC1
T/C [12]: 104 % of control
T/C [13]: 92 % of control

O=C(OCC1CC=CCC1CCl)c1ccccc1 (configuration not stated)
T/C [10]: 96 % of control
T/C [14]: 99 % of control
T/C (dose: 200.0 mg/kg/injection, schedule: Q01DX009 (ip), vehicle: saline with Tween-80): 99 % of control

CCc1c[nH]c(C=O)c1CC
T/C [7]: 100 % of control
T/C [8]: 100 % of control
T/C [9]: 99 % of control

c1ccc2cc(N=NNc3ccc4ccccc4c3)ccc2c1
T/C [10]: 122 % of control
T/C (dose: 50.0 mg/kg/injection, schedule: Q04DX003 (ip), vehicle: saline with Tween-80): 90 % of control
T/C [14]: 95 % of control
T/C (dose: 100.0 mg/kg/injection, schedule: Q04DX003 (ip), vehicle: saline with Tween-80): 100 % of control
T/C (dose: 200.0 mg/kg/injection, schedule: Q04DX003 (ip), vehicle: saline with Tween-80): 109 % of control

O=C(CCCc1ccc(N2C(=O)C=CC2=O)cc1)ON1C(=O)CCC1=O
T/C (dose: 12.5 mg/kg/injection, schedule: Q04DX002 (ip), vehicle: saline with Tween-80): 105 % of control
T/C [11]: 104 % of control

BrCC1(CBr)COC1
T/C (dose: 50.0 mg/kg/injection, schedule: Q01DX001 (ip), vehicle: Klucel (hydroxypropylcellulose) (HPC)): 95 % of control
T/C (dose: 100.0 mg/kg/injection, schedule: Q01DX001 (ip), vehicle: Klucel (hydroxypropylcellulose) (HPC)): 107 % of control
T/C (dose: 200.0 mg/kg/injection, schedule: Q01DX001 (ip), vehicle: Klucel (hydroxypropylcellulose) (HPC)): 100 % of control
